Laboratory results as given in PMC7376644 (Pharmacology Research & Perspectives, 2020).

Experiments:
[1] = cited from earlier work
[2] = test system: CYP2C19; experiment: CYP selective diagnostic inhibition studies in HLM, ticlopidine; type: in vitro ADME, human; conditions: ticlopidine 10 µmol/L
Experimental: (§1) Reactions were carried out in triplicate in 96 well plates. Each reaction was measured at 2 time points, that is at 0 and 30 minutes. […] Furafylline, KTZ, ticlopidine, and quinidine were used as diagnostic inhibitors for CYP 1A2, 3A4/5, 2C19 and 2D6, respectively. The reactions were initiated by addition of NADPH after a pre‐incubation of 5 minutes at 37°C. All reactions were terminated by the addition of 150 µL ice‐cold ACN. Internal standard (0.2 µmol/L DPZ) was added to ACN prior to termination of the assay. This was followed by centrifugation at 4500 g for 20 minutes. An aliquot (50 µL) supernatant was collected and 5 µL was injected and analyzed by liquid chromatography/tandem mass spectrometry (LC/MS/MS). The percent effect of each inhibitor was the estimated contribution of the inhibited CYP calculated using the relationship below: %contribution=amount remaining with inhibitor‐amount remaining without inhibitor/amount remaining without inhibitor×100.

[3] = test system: HLM; experiment: Intrinsic clearance, substrate depletion approach; type: in vitro ADME, human; conditions: HLM, substrate depletion, well‐stirred model
Experimental: The generic conditions were previously described by Masimirembwa and co‐workers. ^24 , ^25 Each reaction mixture consisted of substrate incubated with appropriate enzyme, substrate, and NADPH in potassium phosphate buffer pH 7.4 in a final volume of 200 µL. The substrate was diluted to 40% ACN so that the percent organic component in the final solution was maintained at 1%. The reactions were quenched with 3 volumes of stop solution containing ACN and 0.8% formic acid at 0, 5, 10, 20, 30, 40, and 60 minutes. This was followed by centrifugation at 4500 g for 20 minutes. An aliquot (50 µL) supernatant was collected and diluted (1:1) in water prior to LC‐MS/MS analysis.
Each reaction was monitored over 7 time points.
(§2) The well‐stirred model was used to estimate the hepatic clearance (CLH) due to metabolism.

[4] = test system: CYP3A4/5; experiment: CYP selective diagnostic inhibition studies in HLM, ketoconazole; type: in vitro ADME, human; conditions: ketoconazole 10 µmol/L
Experimental: as §1

[5] = Simcyp prediction of total hepatic clearance; set-up: species or system human
Experimental: The clearance of the incubation mixture was expressed as μL/min/pmol for rCYP.
as §2

[6] = test system: HLM; experiment: Enzyme kinetics of hydroxylated metabolites formation; type: in vitro ADME, human
Experimental: The reactions were carried out in duplicate at each time point. Incubation conditions used for the determination of K M and V max were optimized for linearity with respect to time and protein concentrations. […] Metabolites were analyzed by LC‐MS/MS as described below. The K M and V max values of each marker substrate were determined using nonlinear least squares regression analysis in GraFit software (version 3.0, Erithacus Software Limited) and SigmaPlot Enzyme Kinetics Module for Windows 7.0 (SPSS, Inc). […]

[7] = test system: CYP1A2; experiment: CYP selective diagnostic inhibition studies in HLM, furafylline; type: in vitro ADME, human; conditions: furafylline 10 µmol/L
Experimental: as §1

[8] = test system: CYP2D6; experiment: CYP selective diagnostic inhibition studies in HLM, quinidine; type: in vitro ADME, human; conditions: quinidine 10 µmol/L
Experimental: as §1

[9] = target: T1, CYP1A2 (Homo sapiens, UniProt P05177); experiment: Enzyme kinetics of hydroxylated metabolites formation; type: in vitro ADME; set-up: purchased CYPEX CYP001; host or cells: Escherichia coli; conditions: CYP1A2, formation of cis‐4‐OH‐PZQ
T1 sequence (P05177 1-516): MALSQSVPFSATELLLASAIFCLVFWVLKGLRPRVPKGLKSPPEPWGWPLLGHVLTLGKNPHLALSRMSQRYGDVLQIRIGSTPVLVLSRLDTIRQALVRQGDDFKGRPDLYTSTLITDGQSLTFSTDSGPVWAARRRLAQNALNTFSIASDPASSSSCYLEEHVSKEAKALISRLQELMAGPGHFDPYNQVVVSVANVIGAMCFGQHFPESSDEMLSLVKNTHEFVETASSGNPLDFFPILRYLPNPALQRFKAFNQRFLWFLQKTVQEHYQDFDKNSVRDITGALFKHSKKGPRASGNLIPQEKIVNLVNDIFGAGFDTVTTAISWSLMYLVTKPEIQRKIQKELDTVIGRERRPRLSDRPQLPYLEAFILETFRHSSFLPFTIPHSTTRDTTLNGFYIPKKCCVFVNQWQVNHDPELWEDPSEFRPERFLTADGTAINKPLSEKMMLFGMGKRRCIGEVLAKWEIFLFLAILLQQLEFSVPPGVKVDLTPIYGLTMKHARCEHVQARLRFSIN
Experimental: (§3) The reactions were carried out in duplicate at each time point. Incubation conditions used for the determination of K M and V max were optimized for linearity with respect to time and protein concentrations. […] Metabolites were analyzed by LC‐MS/MS as described below. The K M and V max values of each marker substrate were determined using nonlinear least squares regression analysis in GraFit software (version 3.0, Erithacus Software Limited) and SigmaPlot Enzyme Kinetics Module for Windows 7.0 (SPSS, Inc).
as §2

[10] = target: CYP2C19 (Homo sapiens, UniProt P33261); experiment: as above; type: in vitro ADME; set-up: purchased CYPEX CYP008; host or cells: Escherichia coli; conditions: CYP2C19, formation of cis‐4‐OH‐PZQ
Sequence of CYP2C19 (Homo sapiens, UniProt P33261) (P33261 whole entry): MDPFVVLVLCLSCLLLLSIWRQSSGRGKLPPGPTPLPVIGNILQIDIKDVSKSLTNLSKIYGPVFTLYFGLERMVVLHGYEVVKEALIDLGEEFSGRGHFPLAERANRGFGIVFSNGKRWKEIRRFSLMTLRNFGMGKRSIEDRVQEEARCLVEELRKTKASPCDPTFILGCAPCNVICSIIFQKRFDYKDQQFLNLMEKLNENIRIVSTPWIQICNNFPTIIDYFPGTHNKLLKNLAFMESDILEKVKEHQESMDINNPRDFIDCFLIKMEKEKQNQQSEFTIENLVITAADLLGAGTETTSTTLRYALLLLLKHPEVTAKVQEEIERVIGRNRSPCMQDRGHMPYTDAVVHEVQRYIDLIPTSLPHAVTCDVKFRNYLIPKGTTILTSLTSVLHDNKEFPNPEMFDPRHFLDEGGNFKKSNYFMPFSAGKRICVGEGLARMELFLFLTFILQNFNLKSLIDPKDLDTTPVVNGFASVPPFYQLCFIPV
Experimental: as §3, §2

[11] = cited from earlier work; remark: listed apart in the source
[12] = cited from earlier work; for Increase of exposure with KTZ: PZQ metabolism inhibited by KTZ

Row | Contribution of CYP2C19 [2] | Predicted CLH [3] | Contribution of CYP3A4/5 [4] | Predicted total CLH (Simcyp) ([5]; metabolite formation assay) | Predicted total CLH (Simcyp) ([5]; substrate depletion assay) | K M [SD] ([6]; formation of X‐OH‐PZQ) | V max [SD] ([6]; formation of X‐OH‐PZQ) | K M [SD] ([6]; formation of cis‐4‐OH‐PZQ) | V max [SD] ([6]; formation of cis‐4‐OH‐PZQ) | Contribution of CYP1A2 [7] | Contribution of CYP2D6 [8] | CLuH,int [9] | CLuH,int [10] | Structure (SMILES) | Fraction unbound in plasma (fu) [1] | Oral dose eliminated renally (unchanged drug and metabolites) [11] | Systemic bioavailability [11] | Increase in bioavailability ([11]; co‐administration with cimetidine) | Drug excreted within 24 hours ([11]; in man) | Increase of exposure with KTZ [12] | Amount relative to cis 4‐OH PZQ in vivo ([12]; ref NLeya et al (19))
1 | 127% | 11.70 mL/min/kg | 97% | 11.44 mL/min/kg | 3.656 mL/min/kg | 118.6 [35.79] µmol/L | 11.10 [2.074] nmol/min/mg protein | 32.60 [3.982] µmol/L | 0.5978 [0.028] nmol/min/mg protein | −54% | 35% | 6.870 mL/min/kg | 4.600 mL/min/kg | O=C(C1CCCCC1)N1CC(=O)N2CCc3ccccc3C2C1 (stereo not drawn) [PZQ, praziquantel] | 0.2 | More than 80% | < 20% | 100% | more than 80% | – | –
2 | – | – | – | – | – | – | – | – | – | – | – | – | – | O=C1CN(C(=O)[C@H]2CC[C@@H](O)CC2)CC2c3ccccc3CCN12 (stereo partly drawn) [cis‐4‐OH PZQ, cis‐4‐hydroxy‐PZQ] | – | – | – | – | – | 57% | –
3 | – | – | – | – | – | – | – | – | – | – | – | – | – | O=C(C1CCC(O)CC1)N1CC(=O)N2CCc3ccccc3C2C1 (stereo not drawn) [trans‐4‐OH PZQ, trans‐4‐hydroxy‐PZQ] | – | – | – | – | – | 67% | 30 times
